Data: patent US11718609B2, “Heparanase inhibitors and use thereof” (Beta Therapeutics Pty Ltd, priority 2016, dated 2023)

Legend:
[1] = biological target: Recombinant human active heparanase (Homo sapiens (Human), UniProt Q9Y251); test: Heparanase inhibition assay (colorimetric, fondaparinux substrate, WST-1 detection); format: biochemical; conditions: for IC50: average ± SEM, direct comparison to OGT_2115, read-out: Average IC50 (μM ± SEM), heparanase enzyme inhibition
Description: Recombinant human active heparanase derived from Chinese hamster ovary cells was from R&D Systems. […] Following initiation of the reaction by addition of fondaparinux, the plate was sealed with adhesive film and incubated at 37° C. for 20-24 h. […] For the enzymatic assays, test compounds were dissolved and added to the assay at varying concentrations to calculate the level of inhibition.
Heparanase inhibition activity of various compounds of the invention was determined using standard methods.

C57BL6J mice = test: Photo-oxidative damage of the retina, retinal function by electroretinography (ERG); conditions: intravitreal injection 1 μL of 200 μM, 5 days photo-oxidative damage
Description: Significant trends in data points were ascertained using the one-way or two-way analysis of variance (ANOVA) to determine statistical significance (p<0.05) that is indicated by asterisks (*).
C57BL6J mice were born and raised in 12:12 hrs light:dark cycle of 5 lux in individually vented cages, with free access to food and water. Age-matched adult mice (8-10 weeks) were randomly assigned to light damage and dim-reared control (non-light damage) groups. Animals of the light damage group were continuously exposed to 100 k lux white LED light for 1, 3, 5 and 7 days. […] Dim-reared control animals were also pupil dilated twice each day, but were returned to dim cyclic light (12:12 hrs light:dark, 5 lux light).
During bright-light exposure, animals were housed in plastic boxes (two per box), with free access to food and water. The floors of the cages were coated with a reflective Perspex surface and illuminated by a 100-W 65000 k natural white LED (high CRI LED, Yuji, Beijing) mounted 18 cm above the plastic boxes. The LED light has an emission spectrum which more closely resembles daylight than halogen or incandescent bulbs. […] Animals were provided with bedding, food and water during the time course of light exposure, and their behaviour was monitored daily. […]

db/db mice [2] = test: Insulin content of pancreatic islets in db/db mice (anti-insulin staining, morphometric analysis); format: in vivo, mouse; conditions: 50 mg/kg daily IP
Description: FIG. 5. Insulin content in pancreas sections in db/db mice a model of Type 2 diabetes. Mice were treated daily with 50 mg/kg PI-88 IP from 4 weeks of age. Onset of clinical diabetes was determined by measuring urine glucose twice weekly with Multistix reagent strips and confirmed by measuring non-fasting blood glucose levels in tail vein blood using a MediSense glucometer with hyperglycemia defined as 2 consecutive blood glucose readings of 16 mmol/l or greater. Insulin was detected by anti-insulin antibody staining.
The db/db mouse has defective leptin signalling resulting from a point mutation in the leptin receptor gene. Plasma insulin levels become elevated very early in life (10-14 days of age), and the affected animals are obese by the time they are 3-4 weeks old. The animals are insulin resistant, hypertriglyceridemic, and have impaired glucose tolerance.
db/db mice were treated with saline or 50 mg/kg of PI-88 by daily intraperitoneal injection. At the cessation of treatment pancreatic islets were isolated and stained for insulin and the level of insulin expression assessed by quantitative morphometric analyses.

[3] = cited from earlier work
db/db mice [4] = test: Intra-islet heparan sulfate content in db/db mice (Alcian blue staining, morphometric analysis); format: in vivo, mouse; conditions: 50 mg/kg daily IP
Description: FIG. 6. Intra-islet HS content in pancreas sections in treated db/db mice. Mice were treated daily with 50 mg/kg PI-88 IP from 4 weeks of age. Onset of clinical diabetes was determined by measuring urine glucose twice weekly with Multistix reagent strips and confirmed by measuring non-fasting blood glucose levels in tail vein blood using a MediSense glucometer with hyperglycemia defined as 2 consecutive blood glucose readings of 16 mmol/l or greater. Islet HS was detected by Alcian blue staining.
db/db mice were treated with saline or 50 mg/kg of PI-88 daily by intraperitoneal injection. At the cessation of treatment pancreatic islets were isolated and stained with alcian blue to visualise heparan sulfate and the heparan sulfate content of the islets was assessed by quantitative morphometric analyses.

Recombinant human active heparanase, sequence (Q9Y251 158-543): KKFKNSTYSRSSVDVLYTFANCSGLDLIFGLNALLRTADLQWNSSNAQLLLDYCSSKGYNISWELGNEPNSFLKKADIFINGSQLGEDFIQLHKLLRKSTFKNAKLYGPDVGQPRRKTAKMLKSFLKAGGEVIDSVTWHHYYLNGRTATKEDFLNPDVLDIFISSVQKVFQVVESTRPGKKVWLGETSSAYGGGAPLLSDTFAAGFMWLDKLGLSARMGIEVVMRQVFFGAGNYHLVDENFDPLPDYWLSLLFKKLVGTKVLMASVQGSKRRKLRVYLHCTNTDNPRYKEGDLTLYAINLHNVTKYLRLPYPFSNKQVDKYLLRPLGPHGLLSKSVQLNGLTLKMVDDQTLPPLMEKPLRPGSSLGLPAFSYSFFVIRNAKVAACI
Recombinant human active heparanase, sequence (Q9Y251 36-109): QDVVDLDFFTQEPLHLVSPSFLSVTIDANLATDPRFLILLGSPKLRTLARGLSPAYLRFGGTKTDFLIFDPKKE

## COc1cc2nc(-c3cccc4cccnc34)nc(NCCc3ccccc3)c2cc1OC [BT2164]
[1]
  IC50: 3.13 ± 0.72 µM

## COc1cc2nc(NCCNC(=O)c3nnc(-c4cc5ccccc5[nH]4)o3)nc(N)c2cc1OC [BT2169]
[1]
  IC50: 4 ± 0.09 µM

## COc1cc2nc(NCCNC(=O)c3nnc(-c4ccccc4)o3)nc(N)c2cc1OC.Cl [BT2172]
C57BL6J mice
  ERG a-wave and b-wave responses versus control (PBS): higher a- and b-wave responses than the control (PBS) group
  retinal function (ERG): maintained retinal function

## COc1cc2nc(-c3cccc4cccnc34)nc(NCCNC(=O)c3nnc(-c4ccccc4)o3)c2cc1OC [BT2187]
[1]
  IC50: 3.64 ± 0.62 µM

## COc1cc2nc(N3CCN(C(=O)C4COc5ccccc5O4)CC3)nc(N)c2cc1OC (stereo not drawn) [doxazosin, reference compound]
[1]
  heparanase inhibition (in words): inhibits heparanase

## PI-88
db/db mice [2]
  expression of insulin in islets: increased compared to the saline treated db/db mice and is near to the level of insulin expression in the wild-type mice
[3]
  half-life: approximately 30 minutes
db/db mice [4]
  islet heparan sulfate levels: increased compared to the saline treated db/db mice and are near to the levels of heparan sulfate in the islets of wild-type mice
